The results in this text go back to ChEMBL document CHEMBL1201862, “PubChem BioAssay data set” (2004).

The term GI50 denotes the concentration at which growth is held to half of that of the control.

Among the test systems are A498; EKVX; HCT-15; HL-60; HT-29; K562; M14; NCI-H522; SF-268; SK-MEL-5; SK-OV-3; U-251; UO-31; A549; HCT-116; KM12; OVCAR-4; OVCAR-5; RXF 393; UACC-257.
Test in all cases: DTP human tumour cell line panel, 48 h

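Where inhibition never reached the appropriate level, the endpoint shown equals the highest concentration tested. Otherwise, values were interpolated linearly from a five-concentration, 48-hour dose response in 96-well plates. Abbreviation: GI50, concentration required for 50% inhibition of growth.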 Calls of active or inactive are those of the source. Rule as the data show it: active = GI50 up to about 1.1 µM and inactive = higher. Bounds are passed on as bounds.

On to `CCOCc1cc(=O)c2c(O)cc3c(c2o1)CCC(C)(C)O3`, for which the GI50 in the assay on A498 was > 100 µM (inactive); with EKVX it was > 100 µM (inactive); in the assay with HCT-15, over 100 µM; with HL-60 it was > 100 µM (inactive); in the assay on HT-29, > 100 µM (inactive); in the assay on K562 it was > 100 µM (inactive). The GI50 in the assay with M14, with NCI-H522, in the assay on SF-268, in the assay on SK-MEL-5, in the assay with SK-OV-3 and with U-251 was > 100 µM (inactive) throughout. Besides, in the assay on UO-31, the GI50 is > 100 µM (inactive).
Regarding `O=C1CSc2cc([N+](=O)[O-])ccc2N1`, the GI50 in the assay with A498 was > 100 µM (inactive); with A549, > 100 µM (inactive); with EKVX it was > 100 µM (inactive); in the assay with HCT-116, > 100 µM (inactive); with HCT-15, over 100 µM; in the assay with HT-29, > 100 µM (inactive). Further, the GI50 with K562, in the assay with KM12, in the assay on M14, with NCI-H522, in the assay on OVCAR-4 and with OVCAR-5 was > 100 µM (inactive) each time. The GI50 in the assay on RXF 393, in the assay on SF-268, with SK-MEL-5, with SK-OV-3, in the assay with U-251 and in the assay on UACC-257 was > 100 µM (inactive) in each case.
Take `CCOC(=O)C(Cc1c(-c2[nH]c3ccccc3c2CC(NC(=O)CNC(C)=O)C(=O)OCC)[nH]c2ccccc12)NC(=O)CNC(C)=O` (stereo not drawn): the GI50 in the assay with A498 is 65 µM (inactive); in the assay with A549, > 100 µM (inactive); with EKVX, > 100 µM (inactive); in the assay on HCT-116, > 100 µM (inactive); with HCT-15 it was over 100 µM; with HT-29, > 100 µM (inactive). The GI50 with KM12 was > 100 µM (inactive); in the assay with M14, 71.6 µM (inactive); in the assay on NCI-H522 it was 27.9 µM (inactive); in the assay with OVCAR-4, > 100 µM (inactive); in the assay on OVCAR-5, > 100 µM (inactive); in the assay with SF-268 it was 45.5 µM (inactive). In addition, the GI50 is 29.9 µM (inactive) with SK-MEL-5; > 100 µM (inactive) in the assay on SK-OV-3; > 100 µM (inactive) in the assay on U-251; 27.4 µM (inactive) in the assay on UACC-257; 77.4 µM (inactive) in the assay with UO-31.
As to `CC(=O)N(C(=O)CC(=O)N1N=C(C)C(/N=N/c2cccc([N+](=O)[O-])c2)C1=O)c1ccc(Cl)cc1` (stereo not drawn), the GI50 in the assay on A549 is > 10 µM (inactive); in the assay on HCT-116, > 10 µM (inactive); with HCT-15, over 10 µM; in the assay with HL-60, > 10 µM (inactive); in the assay on HT-29 it was > 10 µM (inactive); with K562, > 10 µM (inactive). Moreover, the GI50 in the assay with KM12, in the assay on M14, with NCI-H522, in the assay with OVCAR-4, with OVCAR-5 and in the assay on SF-268 was > 10 µM (inactive) throughout. For the same compound, the GI50 in the assay with SK-MEL-5, in the assay on SK-OV-3, in the assay with U-251 and in the assay with UACC-257 was > 10 µM (inactive) each time.
Consider `CCOC(=O)c1nc2ccc(OC)cc2c2c1Cc1ccccc1-2`, for which the GI50 was > 100 µM (inactive) in the assay with A549; 8.95 µM (inactive) in the assay on HCT-116; over 100 µM with HCT-15; > 100 µM (inactive) in the assay with HT-29; > 100 µM (inactive) with K562; > 100 µM (inactive) with KM12. Further, the GI50 is > 100 µM (inactive) in the assay on M14; 56.5 µM (inactive) with NCI-H522; 49.8 µM (inactive) in the assay on OVCAR-4; > 100 µM (inactive) with OVCAR-5; 16.2 µM (inactive) with RXF 393; > 100 µM (inactive) in the assay with SF-268. Moreover, the GI50 was 42.8 µM (inactive) in the assay on SK-MEL-5, > 100 µM (inactive) in the assay on U-251, > 100 µM (inactive) in the assay with UACC-257 and > 100 µM (inactive) in the assay with UO-31.
Take `C[C@H](C(=O)O)C(=O)NC(=O)N(Cc1ccccc1)N=O`: the GI50 was > 100 µM (inactive) in the assay with A498; > 100 µM (inactive) in the assay with A549; > 100 µM (inactive) in the assay with EKVX; > 100 µM (inactive) in the assay with HCT-116; over 100 µM in the assay with HCT-15; > 100 µM (inactive) in the assay with HT-29. For the same compound, the GI50 was 88.3 µM (inactive) in the assay with K562; > 100 µM (inactive) in the assay with KM12; > 100 µM (inactive) in the assay with M14; > 100 µM (inactive) in the assay on OVCAR-4; > 100 µM (inactive) with OVCAR-5; > 100 µM (inactive) in the assay with SF-268. Moreover, the GI50 with SK-MEL-5, with SK-OV-3, in the assay with U-251, with UACC-257 and in the assay with UO-31 was > 100 µM (inactive) each time.
Regarding `CN(C(=O)C12C3C4C1C1C2C3C41C(=O)C(C)(C)C)C(C)(C)C` (stereo not drawn), the GI50 in the assay with A498 was > 100 µM (inactive); in the assay with A549, > 100 µM (inactive); in the assay with EKVX, > 100 µM (inactive); with HCT-116, > 100 µM (inactive); in the assay with HL-60, 63.5 µM (inactive); in the assay with HT-29 it was > 100 µM (inactive). Also, the GI50 is > 100 µM (inactive) with K562; > 100 µM (inactive) with KM12; > 100 µM (inactive) with M14; 22 µM (inactive) with NCI-H522; > 100 µM (inactive) in the assay on OVCAR-4; > 100 µM (inactive) in the assay on OVCAR-5. Moreover, the GI50 in the assay on SF-268, with SK-MEL-5, in the assay on SK-OV-3, in the assay with U-251, with UACC-257 and with UO-31 was > 100 µM (inactive) each time.
As to `O=c1[nH]cnc2sc(=S)c3c(c12)CCC3`, the GI50 in the assay with A549 is 68.7 µM (inactive); with EKVX, 47.6 µM (inactive); in the assay on HCT-116 it was 31.3 µM (inactive); in the assay with HCT-15, 29 µM; with HL-60, 22.2 µM (inactive); with HT-29, 35.2 µM (inactive). In addition, the GI50 in the assay with K562 is 12.2 µM (inactive); with KM12, 51.5 µM (inactive); in the assay with M14 it was 34.2 µM (inactive); in the assay on NCI-H522, 15.9 µM (inactive); in the assay with OVCAR-4, 33.5 µM (inactive); in the assay with OVCAR-5, 47.8 µM (inactive). Further, the GI50 with RXF 393 is 21.9 µM (inactive); with SF-268, > 100 µM (inactive); with SK-MEL-5 it was 17.8 µM (inactive); in the assay on SK-OV-3 it was > 100 µM (inactive); with U-251, > 100 µM (inactive); with UACC-257, 33.3 µM (inactive). Besides, in the assay with UO-31, the GI50 was 25.8 µM (inactive).
With `NC(CCOCCP(=O)(O)CCOCCC(N)C(=O)O)C(=O)O` (stereo not drawn), the GI50 in the assay with A549 is > 100 µM (inactive); with EKVX, > 100 µM (inactive); in the assay with HCT-116 it was > 100 µM (inactive); with HCT-15, over 100 µM; in the assay on HL-60, > 100 µM (inactive); in the assay on HT-29 it was > 100 µM (inactive). The GI50 with K562, in the assay on KM12, with M14, with NCI-H522, with OVCAR-4 and in the assay with OVCAR-5 was > 100 µM (inactive) in each case. Further, the GI50 in the assay on RXF 393, in the assay on SF-268, in the assay on SK-MEL-5, in the assay on SK-OV-3, in the assay with U-251 and in the assay on UACC-257 was > 100 µM (inactive) in each case. For the same compound, the GI50 in the assay with UO-31 is > 100 µM (inactive).
